In brackets after ≈: the same amount, converted by molar mass.
Key:
[1] = system: Microsporum; assay: Antifungal activity against Microsporum lanosum; assay type: functional
[2] = system: Fonsecaea pedrosoi; assay: Antifungal activity against Fonsecaea pedrosoi; assay type: functional
[3] = system: Candida tropicalis; assay: Antifungal activity against Candida tropicalis; assay type: functional
[4] = system: Aspergillus fumigatus; assay: Antifungal activity against Aspergillus fumigatus; assay type: functional
[5] = system: Candida albicans; assay: Antifungal activity against Candida albicans; assay type: functional
[6] = system: Trichophyton rubrum; assay: Antifungal activity against Trichophyton rubrum; assay type: functional
[7] = system: Candida parapsilosis; assay: Antifungal activity against Candida parapsilosis; assay type: functional; conditions: Lodderomyces parapsilosis
[8] = system: Cryptococcus neoformans; assay: Antifungal activity against Cryptococcus neoformans; assay type: functional
[9] = system: Epidermophyton floccosum; assay: Antifungal activity against Epidermophyton floccosum; assay type: functional
[10] = system: Nannizzia gypsea; assay: Antifungal activity against Microsporum gypseum; assay type: functional
[11] = system: Trichophyton benhamiae; assay: Antifungal activity against Trichophyton mentagrophytes; assay type: functional, Arthroderma benhamiae
[12] = system: Trichophyton violaceum; assay: Antifungal activity against Trichophyton violaceum; assay type: functional
[13] = system: Sporothrix schenckii; assay: Antifungal activity against Sporothrix schenckii; assay type: functional

SMILES | MIC80 [1] | MIC80 [2] | MIC80 [3] | MIC80 [4] | MIC80 [5] | MIC80 [6] | MIC80 [7] | MIC80 [8] | MIC80 [9] | MIC80 [10] | MIC80 [11] | MIC80 [12] | MIC80 [13]
Cc1cccc(C(=O)Nc2ccc(CN(C)CC(O)(Cn3cncn3)c3ccc(F)cc3F)cc2)c1 (stereo not drawn) | 0.25 µg/mL (≈ 0.509 µM) | 0.5 µg/mL (≈ 1.02 µM) | 1 µg/mL (≈ 2.03 µM) | 16 µg/mL (≈ 32.6 µM) | 0.031 µg/mL (≈ 0.0631 µM) | ≤ 0.125 µg/mL | 0.0625 µg/mL (≈ 0.127 µM) | 1 µg/mL (≈ 2.03 µM) | – | – | – | – | –
CN(Cc1ccc(NC(=O)c2cccc([N+](=O)[O-])c2)cc1)CC(O)(Cn1cncn1)c1ccc(F)cc1F (stereo not drawn) | 8 µg/mL (≈ 15.3 µM) | 0.5 µg/mL (≈ 0.957 µM) | 4 µg/mL (≈ 7.66 µM) | 64 µg/mL (≈ 122 µM) | 16 µg/mL (≈ 30.6 µM) | 0.25 µg/mL (≈ 0.478 µM) | 16 µg/mL (≈ 30.6 µM) | 0.5 µg/mL (≈ 0.957 µM) | – | – | – | – | –
CN(Cc1ccc(NC(=O)c2ccc(Cl)cc2Cl)cc1)CC(O)(Cn1cncn1)c1ccc(F)cc1F (stereo not drawn) | 0.5 µg/mL (≈ 0.915 µM) | ≤ 0.125 µg/mL | 0.5 µg/mL (≈ 0.915 µM) | 16 µg/mL (≈ 29.3 µM) | 0.016 µg/mL (≈ 0.0293 µM) | 0.5 µg/mL (≈ 0.915 µM) | 0.125 µg/mL (≈ 0.229 µM) | 0.0625 µg/mL (≈ 0.114 µM) | – | – | – | – | –
CN(Cc1ccc(NC(=O)c2ccccc2)cc1)CC(O)(Cn1cncn1)c1ccc(F)cc1F (stereo not drawn) | 4 µg/mL (≈ 8.38 µM) | 1 µg/mL (≈ 2.09 µM) | 0.125 µg/mL (≈ 0.262 µM) | 32 µg/mL (≈ 67 µM) | 0.031 µg/mL (≈ 0.0649 µM) | 0.5 µg/mL (≈ 1.05 µM) | 0.0625 µg/mL (≈ 0.131 µM) | 1 µg/mL (≈ 2.09 µM) | – | – | – | – | –
CN(Cc1ccc(NC(=O)c2ccccc2Cl)cc1)CC(O)(Cn1cncn1)c1ccc(F)cc1F (stereo not drawn) | 2 µg/mL (≈ 3.91 µM) | 2 µg/mL (≈ 3.91 µM) | 0.5 µg/mL (≈ 0.977 µM) | 32 µg/mL (≈ 62.5 µM) | 0.0625 µg/mL (≈ 0.122 µM) | 4 µg/mL (≈ 7.81 µM) | 0.25 µg/mL (≈ 0.488 µM) | 2 µg/mL (≈ 3.91 µM) | – | – | – | – | –
Cc1ccc(C(=O)Nc2ccc(CN(C)CC(O)(Cn3cncn3)c3ccc(F)cc3F)cc2)cc1 (stereo not drawn) | 2 µg/mL (≈ 4.07 µM) | 0.25 µg/mL (≈ 0.509 µM) | 0.016 µg/mL (≈ 0.0326 µM) | 32 µg/mL (≈ 65.1 µM) | 0.016 µg/mL (≈ 0.0326 µM) | ≤ 0.125 µg/mL | 0.031 µg/mL (≈ 0.0631 µM) | 0.5 µg/mL (≈ 1.02 µM) | – | – | – | – | –
CN(Cc1cc(F)ccc1Br)CC(O)(Cn1cncn1)c1ccc(F)cc1F (stereo not drawn) | 8 µg/mL (≈ 17.6 µM) | 2 µg/mL (≈ 4.39 µM) | ≤ 0.125 µg/mL | 4 µg/mL (≈ 8.79 µM) | 0.032 µg/mL (≈ 0.0703 µM) | 0.5 µg/mL (≈ 1.1 µM) | ≤ 0.125 µg/mL | ≤ 0.125 µg/mL | < 0.0625 µg/mL | 32 µg/mL (≈ 70.3 µM) | 0.5 µg/mL (≈ 1.1 µM) | 4 µg/mL (≈ 8.79 µM) | 64 µg/mL (≈ 141 µM)
CN(Cc1ccc(NC(=O)c2ccc(Br)cc2)cc1)CC(O)(Cn1cncn1)c1ccc(F)cc1F (stereo not drawn) | 0.25 µg/mL (≈ 0.449 µM) | ≤ 0.125 µg/mL | 0.016 µg/mL (≈ 0.0288 µM) | 16 µg/mL (≈ 28.8 µM) | 0.008 µg/mL (≈ 0.0144 µM) | ≤ 0.125 µg/mL | 0.016 µg/mL (≈ 0.0288 µM) | 0.125 µg/mL (≈ 0.225 µM) | – | – | – | – | –
CN(Cc1ccc(-n2cnn(Cc3ccc(C(F)(F)F)cc3)c2=O)cc1)CC(O)(Cn1cncn1)c1ccc(F)cc1F (stereo not drawn) | – | 0.0625 µg/mL (≈ 0.104 µM) | 0.0625 µg/mL (≈ 0.104 µM) | 8 µg/mL (≈ 13.3 µM) | 0.001 µg/mL (≈ 0.00167 µM) | 0.5 µg/mL (≈ 0.834 µM) | 0.008 µg/mL (≈ 0.0133 µM) | 0.25 µg/mL (≈ 0.417 µM) | – | – | – | – | 16 µg/mL (≈ 26.7 µM)
CN(Cc1ccc(-n2cnn(Cc3cccc(I)c3)c2=O)cc1)CC(O)(Cn1cncn1)c1ccc(F)cc1F (stereo not drawn) | – | 0.0625 µg/mL (≈ 0.0951 µM) | 0.0625 µg/mL (≈ 0.0951 µM) | 2 µg/mL (≈ 3.04 µM) | 0.002 µg/mL (≈ 0.00304 µM) | 0.25 µg/mL (≈ 0.38 µM) | 0.008 µg/mL (≈ 0.0122 µM) | 0.25 µg/mL (≈ 0.38 µM) | – | – | – | – | 64 µg/mL (≈ 97.3 µM)
CN(Cc1ccc(-n2cnn(Cc3ccc(I)cc3)c2=O)cc1)CC(O)(Cn1cncn1)c1ccc(F)cc1F (stereo not drawn) | – | 0.0625 µg/mL (≈ 0.0951 µM) | 1 µg/mL (≈ 1.52 µM) | 2 µg/mL (≈ 3.04 µM) | 0.031 µg/mL (≈ 0.0472 µM) | 0.25 µg/mL (≈ 0.38 µM) | 0.031 µg/mL (≈ 0.0472 µM) | 0.25 µg/mL (≈ 0.38 µM) | – | – | – | – | 64 µg/mL (≈ 97.3 µM)
CN(Cc1ccc(-n2cnn(Cc3ccc(C(C)(C)C)cc3)c2=O)cc1)CC(O)(Cn1cncn1)c1ccc(F)cc1F (stereo not drawn) | – | 0.25 µg/mL (≈ 0.425 µM) | 1 µg/mL (≈ 1.7 µM) | 8 µg/mL (≈ 13.6 µM) | 0.031 µg/mL (≈ 0.0528 µM) | 0.5 µg/mL (≈ 0.851 µM) | 4 µg/mL (≈ 6.81 µM) | 2 µg/mL (≈ 3.4 µM) | – | – | – | – | 32 µg/mL (≈ 54.5 µM)
OC(Cn1cncn1)(Cn1cncn1)c1ccc(F)cc1F [FLUCONAZOLE] | > 32 µg/mL | 64 µg/mL (≈ 209 µM) | 0.5 µg/mL (≈ 1.63 µM) | 32 µg/mL (≈ 104 µM) | 0.25 µg/mL (≈ 0.816 µM) | 8 µg/mL (≈ 26.1 µM) | 0.5 µg/mL (≈ 1.63 µM) | 16 µg/mL (≈ 52.2 µM) | > 32 µg/mL | 8 µg/mL (≈ 26.1 µM) | > 32 µg/mL | 32 µg/mL (≈ 104 µM) | > 64 µg/mL
CCc1ccc(Cn2ncn(-c3ccc(CN(C)CC(O)(Cn4cncn4)c4ccc(F)cc4F)cc3)c2=O)cc1 (stereo not drawn) | – | 0.25 µg/mL (≈ 0.447 µM) | 0.25 µg/mL (≈ 0.447 µM) | 8 µg/mL (≈ 14.3 µM) | 0.008 µg/mL (≈ 0.0143 µM) | 0.5 µg/mL (≈ 0.893 µM) | 0.008 µg/mL (≈ 0.0143 µM) | 0.5 µg/mL (≈ 0.893 µM) | – | – | – | – | 64 µg/mL (≈ 114 µM)
CN(Cc1ccc(C(F)(F)F)cc1)CC(O)(Cn1cncn1)c1ccc(F)cc1F (stereo not drawn) | – | 0.125 µg/mL (≈ 0.293 µM) | 1 µg/mL (≈ 2.35 µM) | 8 µg/mL (≈ 18.8 µM) | 0.031 µg/mL (≈ 0.0727 µM) | 0.5 µg/mL (≈ 1.17 µM) | 2 µg/mL (≈ 4.69 µM) | 0.25 µg/mL (≈ 0.586 µM) | – | – | – | – | 64 µg/mL (≈ 150 µM)
CN(Cc1ccc(NC(=O)c2ccc([N+](=O)[O-])cc2)cc1)CC(O)(Cn1cncn1)c1ccc(F)cc1F (stereo not drawn) | 4 µg/mL (≈ 7.66 µM) | 0.25 µg/mL (≈ 0.478 µM) | 0.5 µg/mL (≈ 0.957 µM) | > 64 µg/mL | 0.0625 µg/mL (≈ 0.12 µM) | 0.5 µg/mL (≈ 0.957 µM) | 0.125 µg/mL (≈ 0.239 µM) | 0.5 µg/mL (≈ 0.957 µM) | – | – | – | – | –
